{"source": "patent US20090042987A1", "about": "“TREATMENT OF NEUROPATHIC PAIN” (priority 2007, published 2009)", "key": {"STZ-diabetic rats [1]": {"system": "STZ-diabetic rats", "test": "Behavioural observations / adverse effects in STZ-diabetic rats", "type": "in vivo, rat", "conditions": "tranilast 30-400 mg/kg oral, 7 consecutive twice-daily bolus doses", "description": "Behavioural Observations. STZ-diabetic rats were monitored for visible and audible signs of distress throughout the testing period. The visible signs of distress included behavioural changes such as complete immobility, movement with abnormal gait, agitation, aggression, wet dog shakes, excessive grooming, restlessness with constant movement, repeated sudden movements or staring."}, "STZ-diabetic rats [2]": {"system": "STZ-diabetic rats", "test": "von Frey paw withdrawal thresholds, STZ-diabetic rats given multiple dosing regimens (washout protocol), Example 1", "type": "in vivo, rat", "method": "Experimental Animals Ethical approval for this study was obtained from the Animal Experimentation Ethics Committee of The University of Queensland. Adult male Sprague-Dawley (SD) rats (222±4 g) were used for this study. Rats were housed in a temperature controlled room (21+2.0 C) with a 12/12 hour light/dark cycle. Food and water were available ad libitum. Initiation of drug administration occurred at 8-11 weeks post-STZ administration for rats in Experiment 1 (PCT-001) and at 10-12 weeks post-STZ administration for rats in Experiment 2 (PCT-007).\nTest Article Tranilast was supplied by the Sponsor and stored at −4° C. until use. Gabapentin (100 mg/kg, dissolved in water for injection) was utilized as the positive control for this study.\nTest Article and Vehicle Preparation Test article formulations were prepared freshly on the day of administration by weighing the appropriate amount of bulk powder and suspending it in the required volume of vehicle. Carboxymethyl cellulose ((CMC) 0.5% in water for injection) was utilized as the vehicle for this study.\nTest Article Administration. […] The maximum oral gavage volume administered in this study was […]. 4.4\nSTZ-Diabetic Rat Model of Painful Diabetic Neuropathy. Painful diabetic neuropathy is a common long-term complication of diabetes in humans that develops as a result of a sustained biochemical nerve injury. […] Following the induction of diabetes with intravenous STZ at 70-80 mg/kg, it generally takes 6-8 wks for tactile allodynia, the defining symptom of PDN, to fully develop in both rat hindpaws.\nInduction of STZ-Diabetes in Rats. On day 0, rats were anaesthetized with 3% isoflurane:97% O2 and a short polyethylene cannula (0.5 mm ID, 0.8 mm OD) was inserted into the jugular vein to facilitate the intravenous (i.v.) administration of a single dose of streptozotocin (STZ: 70-80 mg/kg). After STZ injection, the cannula was removed and the jugular vein was tied off and the wound was closed. Rats received subcutaneous benzylpenicillin (60 mg) prior to surgery to prevent infection and were kept warm during surgical recovery. Rats were housed singly prior to further experimentation and were monitored daily from the time of STZ administration with regard to general health and well-being.\nVon Frey Assessment of Paw Withdrawal Thresholds. Calibrated von Frey filaments were used to determine the lowest mechanical threshold required to evoke a brisk paw withdrawal reflex in the rat hindpaws. Briefly, rats were transferred individually to wire mesh testing cages (20 cm×20 cm×20 cm) and allowed to acclimatize for approximately 10-20 min prior to von Frey testing. Commencing with the von Frey filament that produced the 6 g force, the filament was applied to the plantar surface of the hindpaw until the filament buckled slightly. Absence of a response after 3 s prompted use of the next filament of increasing weight. A withdrawal response within 3 s prompted use of the next filament of decreasing weight. Filaments used produced buckling weights of 2, 4, 6, 8, 10, 12, 14, 16, 18 and 20 g. […] Tactile allodynia is regarded as being fully developed when von Frey PWTs in the injured hindpaws are <6 g.\nRestoring von-Frey PWTs in the hindpaws from <6 g to pre-STZ surgery levels (12±2 g) is the treatment goal representing full reversal of tactile allodynia. If drug treatment increases PWTs above pre-surgical baseline values (i.e. >12±2 g), such a response is classified as antinociception. Before administration of STZ, baseline von Frey measurements were assessed. Following STZ administration, baseline PWTs were assessed in the hindpaws at week 8-11 to confirm the development of diabetes-induced tactile allodynia. […]"}}, "note": "“Also recorded” adds a separate entry of the source."}
{"smiles": "COc1ccc(/C=C/C(=O)Nc2ccccc2C(=O)O)cc1OC", "note": "[Tranilast, 2-[[3-(3,4-dimethoxyphenyl)-1-oxo-2-propenyl]amino]benzoic acid]", "values": [{"measurement": "Adverse (behavioural) effects", "setting": "STZ-diabetic rats [1]", "result": "no discernible adverse effects; also recorded: did not produce discernible adverse behavioural effects"}, {"measurement": "Mean (±SEM) PWT at the mean time of peak response", "setting": "STZ-diabetic rats [2]; tranilast 300 mg/kg oral, 7th twice-daily dose, 1.5 h post-dosing", "result": "9.8 (±1.1) g"}, {"measurement": "Time of peak anti-allodynia post-dosing", "setting": "STZ-diabetic rats [2]; tranilast 300 mg/kg oral, 7th twice-daily dose, multiple dosing regimens", "result": "1 to 1.5", "unit": "h"}, {"measurement": "Mean (±SEM) PWT pre-dose", "setting": "STZ-diabetic rats [2]; tranilast 300 mg/kg oral, 7th twice-daily dose, pre-dose", "result": "5.1 (±0.4) g"}, {"measurement": "Anti-allodynia in the hindpaws", "setting": "STZ-diabetic rats [2]; tranilast 30, 100, 200, 300 mg/kg oral, 7 consecutive twice-daily doses, multiple dosing regimens", "result": "significant anti-allodynia was produced only by the 300 mg/kg dosing regimen"}, {"measurement": "Relief of tactile allodynia, dose dependence", "setting": "STZ-diabetic rats [2]; tranilast 100-300 mg/kg oral, 7 consecutive twice-daily doses, up to 5 dosing regimens, 2-3 day washout", "result": "dose-dependent relief of tactile allodynia"}]}
